# According to US20120237566A1, “INHIBITING STOMACH-ACID RELEASE, REDUCING INFLAMMATION AND PREVENTING AND TREATING CANCER: COMPOSITIONS AND METHODS OF USE” (Venture Isles, LLC, priority 2011, published 2012):
# “Also recorded” adds a separate entry of the source. Where two headings read alike, the source gives them in different places.
# Legend:
# high-affinity K site = high-affinity K site (Homo sapiens, UniProt P20648); details: cited from earlier work
# [1] = tested on: gastric microsomal K-pNPPase; test: K-pNPPase activity of gastric microsomes; format: biochemical
# [2] = tested on: chambered bull frog gastric mucosa; details: cited from earlier work
# Na—K-ATPase = details: cited from earlier work
# H, K-ATPase = H, K-ATPase (Homo sapiens, UniProt P20648); details: cited from earlier work
# Sequence of H, K-ATPase (P20648 whole entry): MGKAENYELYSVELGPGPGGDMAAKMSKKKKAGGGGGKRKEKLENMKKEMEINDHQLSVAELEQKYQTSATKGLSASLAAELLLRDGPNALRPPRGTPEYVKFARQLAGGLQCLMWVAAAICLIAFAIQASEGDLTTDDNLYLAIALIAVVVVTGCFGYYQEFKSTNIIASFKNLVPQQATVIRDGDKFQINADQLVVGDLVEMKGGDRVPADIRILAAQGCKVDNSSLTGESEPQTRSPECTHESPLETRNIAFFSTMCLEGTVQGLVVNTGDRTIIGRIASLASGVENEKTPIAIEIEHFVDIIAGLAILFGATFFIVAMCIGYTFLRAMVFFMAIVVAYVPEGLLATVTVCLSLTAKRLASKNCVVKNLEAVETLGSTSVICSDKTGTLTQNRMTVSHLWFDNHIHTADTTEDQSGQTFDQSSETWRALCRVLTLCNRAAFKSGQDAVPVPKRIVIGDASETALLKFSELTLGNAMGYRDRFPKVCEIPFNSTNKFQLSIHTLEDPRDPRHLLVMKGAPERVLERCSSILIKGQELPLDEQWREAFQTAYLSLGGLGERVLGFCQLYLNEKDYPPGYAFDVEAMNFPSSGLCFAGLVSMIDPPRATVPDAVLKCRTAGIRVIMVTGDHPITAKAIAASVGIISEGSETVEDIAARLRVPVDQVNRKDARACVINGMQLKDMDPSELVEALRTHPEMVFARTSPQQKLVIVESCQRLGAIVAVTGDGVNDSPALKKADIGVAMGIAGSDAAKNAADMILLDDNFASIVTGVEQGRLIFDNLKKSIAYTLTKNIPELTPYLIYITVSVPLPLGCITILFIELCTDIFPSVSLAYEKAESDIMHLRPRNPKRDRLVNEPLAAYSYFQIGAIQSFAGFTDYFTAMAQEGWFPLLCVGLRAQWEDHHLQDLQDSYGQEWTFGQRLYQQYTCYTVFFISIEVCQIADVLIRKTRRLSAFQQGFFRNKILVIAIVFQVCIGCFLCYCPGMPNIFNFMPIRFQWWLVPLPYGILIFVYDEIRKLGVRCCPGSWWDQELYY
# Sequence of H, K-ATPase (P51164 whole entry partner): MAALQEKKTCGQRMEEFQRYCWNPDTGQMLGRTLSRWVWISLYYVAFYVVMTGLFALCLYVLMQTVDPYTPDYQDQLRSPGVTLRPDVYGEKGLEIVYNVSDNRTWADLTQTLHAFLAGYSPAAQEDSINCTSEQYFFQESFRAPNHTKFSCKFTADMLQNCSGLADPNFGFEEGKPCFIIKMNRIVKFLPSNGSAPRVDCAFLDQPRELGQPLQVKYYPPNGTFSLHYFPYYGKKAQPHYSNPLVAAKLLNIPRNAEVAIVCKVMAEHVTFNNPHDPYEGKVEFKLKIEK
# mitosis = details: cited from earlier work
# neutrophil elastase = target: T1, neutrophil elastase (Homo sapiens, UniProt P08246); details: cited from earlier work
# T1 sequence (P08246 30-267): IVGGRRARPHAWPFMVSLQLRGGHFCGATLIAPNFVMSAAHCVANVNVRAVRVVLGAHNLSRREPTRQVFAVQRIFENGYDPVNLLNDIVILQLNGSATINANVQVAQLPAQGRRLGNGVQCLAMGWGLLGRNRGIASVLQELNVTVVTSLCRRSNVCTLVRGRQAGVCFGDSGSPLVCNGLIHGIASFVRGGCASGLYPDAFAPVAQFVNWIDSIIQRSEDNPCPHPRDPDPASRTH
# activated neutrophils = details: micromolar EGCG; cited from earlier work
# neutrophil chemotaxis = details: in vitro; cited from earlier work
# [3] = tested on: neutrophil-mediated angiogenesis; details: oral; in vivo; cited from earlier work
# [4] = tested on: chambered bull frog gastric mucosa; test: acid secretion by chambered bull frog gastric mucosa in vitro; format: cell-based
# Excerpt: The method further comprises Step 2 that includes testing to determine if a candidate molecule inhibits the H, K-ATPase activity (inhibits the pump turnover), then test in an appropriate animal model(s) for the antisecretary activity and select the best candidates for clinical trial, as in Step 6.
# (§1) Heavy-metal ions generally comprise Ba, Ca, and Zn and show synergistic inhibition when used in combination with thiocyanate and isothiocyanate. Zinc (Zn) inhibits acid secretion by a mechanism quite different than Barium and Calcium.
# However, SCN and ZN include different modes of operation.
# gastric H, K-ATPase [5] = test: H, K-ATPase activity of isolated gastric microsomal vesicles; format: biochemical
# Excerpt: as §1
# lipoxygenase = details: cited from earlier work
# [6] = tested on: AP-1 mediated transcription; details: in vitro; cited from earlier work
# [7] = tested on: inducible nitric oxide synthase (iNOS); details: activated macrophages; cited from earlier work
# gastric H, K-ATPase [8] = details: cited from earlier work
# [9] = target: highly purified H, K-ATPase (Homo sapiens, UniProt P20648); details: cited from earlier work
# Sequence of highly purified H, K-ATPase (P20648 whole entry): as the sequence (P20648 whole entry) above
# Sequence of highly purified H, K-ATPase (P51164 whole entry partner): as the sequence (P51164 whole entry partner) above
# Sequence of high-affinity K site (P20648 whole entry): as the sequence (P20648 whole entry) above
# Sequence of high-affinity K site (P51164 whole entry partner): as the sequence (P51164 whole entry partner) above
molecule,measurement,setting,value
"2-[3,4]-dichlorophenylamino quinolizium bromide [nolinium bromide]",interaction with the high-affinity K site,high-affinity K site,interacts competitively
[Ba+2] [Barium],"K-pNPPase activity, antagonism with K",[1],parallel Ba/K antagonism
same,reversal of inhibition of acid secretion by higher concentration of K,[2],competitively reverses
same,acid secretion,[2]; higher concentration (above 1 mM),blocks the acid secretion
same,acid secretion,[2]; less than 1 mM concentration,slight stimulation
"Clc1ccccc1C(c1ccccc1)(c1ccccc1)n1ccnc1 [CLT, clotrimazole]",inhibition of Na—K-ATPase,Na—K-ATPase,potent inhibitors
same,"inhibition of H, K-ATPase","H, K-ATPase",potent inhibitors
[Ca+2] [Calcium],response of K-pNPPase inhibition to higher K,[1],nonresponsive to higher K
same,K-pNPPase activity,[1]; concentrations comparable to Ba,strong inhibition
"N#CSc1ccc(Cl)cc1Cl [DCPT, 2,4-dichlorophenyl thiocyanate]",anti-proliferative / antimitotic activity,mitosis,anti-proliferative property; also recorded: antimitotic
"O=C(O[C@@H]1Cc2c(O)cc(O)cc2O[C@@H]1c1cc(O)c(O)c(O)c1)c1cc(O)c(O)c(O)c1 [EGCG, (−)epigallocatechin-3-gallate]",neutrophil elastase inhibition,neutrophil elastase,strongly inhibits
same,apoptosis of activated neutrophils,activated neutrophils,inhibits
same,reactive oxygen species activity,activated neutrophils,represses
same,chemokine-induced neutrophil chemotaxis,neutrophil chemotaxis,dramatically inhibits
same,neutrophil-mediated angiogenesis,[3],block
Cc1nc2c(OCc3ccccc3)cccn2c1CC#N [SCH 28080],interaction with the high-affinity K site,high-affinity K site,interacts competitively
"[Zn+2] [Zn, Zinc]",inhibition of gastric-acid secretion,[4],potent inhibitors
same,reversal of inhibition of acid secretion by beta-mercaptoehanol (βME) in the secretary solution,[4],could be reversed
same,reversal of inhibition of gastric acid secretion by raising K-salt in the bathing medium,[4],totally ineffective
same,restoration of acid secretion after Zn inhibition,[4]; 1 mM beta-mercapto-ehanol (βME),promptly restored
same,acid secretion,"[4]; at a concentration of 60 added to the secretary solution, within 15 min",reduces the acid secretion to near zero
same,"activity of the isolated H, K-ATPase","gastric H, K-ATPase [5]",strongly inhibited
same,"H, K-ATPase activity","gastric H, K-ATPase [5]; 2 μM",abolished
same,"H, K-ATPase activity","gastric H, K-ATPase [5]; 2 μM, listed as Zinc",abolishes
same,"sensitivity of H, K-ATPase activity relative to pNPPase activity","gastric H, K-ATPase [5]; inhibition by Zn",ten times more sensitive
same,activity of the isolated pNPPase,[1],strongly inhibited
same,K-pNPPase activity,[1]; 20 μM,abolishes
"COc1cc(C=CC(=O)CC(=O)C=Cc2ccc(O)c(OC)c2)ccc1O [curcumin, 1,7-bis(4-hydroxy-3-methoxyphenyl)-1,6-heptadiene-3,5-dione]",lipoxygenase inhibition,lipoxygenase,inhibits
same,AP-1 mediated transcription related to cytokine regulation,[6],inhibits
same,inducible nitric oxide synthase (iNOS),[7],suppresses
"N#C[S-].[Na+] [thiocyanate, Sodium thiocyanate]",inhibition of gastric-acid secretion,[4],potent inhibitors
same,reversal of inhibition of gastric acid secretion by raising K-salt in the bathing medium,[4],can be reversed
same,"H, K-ATPase activity","gastric H, K-ATPase [5]; 10 mM",totally ineffective
same,reversal of K-pNPPase inhibition by high K,[1],reversed by high K
same,K-pNPPase activity,[1]; 10 mM,abolished
same,gastric H transport,[2],potent inhibitor
same,"H, K-ATPase mediated hydrolysis of ATP (ATPase activity)","gastric H, K-ATPase [8]",does not inhibit
same,"binding to purified H, K-ATPase",[9],specific binding
same,displacement of bound SCN by K,[9],could be displaced by K
same,"binding to purified H, K-ATPase",[9]; listed as SCN,binding to a specific site
